US20050239873A1 (priority 1999, published 2005)

Legend:
[1] = Binding to plasma proteins (ultrafiltration); type: in vitro ADME, dog; conditions: dog, plasma, presence of NaF+EDTA, read-out: Protein binding, Dog
Description: Solutions of 2-OMe antimycin A3 were diluted with plasma (dog or human) containing NaF+EDTA to final concentrations of 1.0 or 0.2 μg/ml. Controls were diluted with water to the same final concentrations. These preparations were incubated at 37° C. for 20 min, at which time portions were taken and placed in the sample reservoirs of Amicon Centrifree® ultrafiltration systems (Millipore Co., Bedford, Mass.). At 37° C., the filter systems were centrifuged until the reservoirs were dry. From each filtrate, portions were taken for analysis by HPLC. The amounts present were designated as “free drug” (F). The concentrations of the unfiltered solutions were also determined by triplicate analyses. This amount represented the “total drug” concentration (T). The percentage of 2-OMe antimycin A3 bound to plasma proteins was calculated by the following formula: % bound=((T−F)/T)×100
Similar experiments were performed for 2-OMe antimycin A3 in dog or rat plasma in the absence of NaF/EDTA.

S9 metabolism = type: in vitro ADME; conditions: male, hepatic S9 fraction, pH 7.4; for half-life at 500 ng/ml: 37° C.
Source text: All chemicals and solvents used for sample preparation and HPLC analysis were analytical grade. Acetonitrile, methanol, and phosphoric acid were purchased from Fisher Scientific (Atlanta, Ga.). Hepatic S9 fractions from male CD2F1 mice, male Sprague Dawley rats, male dogs, and male humans were purchased from In Vitro Technologies (Boston, Mass.). The National Cancer Institute provided samples of the test compounds and male CD2F1 mice. Fischer 344 rats with implanted jugular cannulas were obtained from Charles River Laboratories (Cambridge, Mass.). All animal use and care procedures were approved by the Institutional Committee on Animal Use and Care at the University of Alabama at Birmingham and conformed to the guidelines found in Guide for the Care and Use of Laboratory Animals, National Academy Press, 1996.
To evaluate metabolism of the test compounds by S9 fractions from various species, reaction systems maintained at 37° C. contained 2-OMe-A3 (500 ng/ml) and S9 (1 mg protein/ml) in 100 mM Tris buffer (pH 7.4). At selected times, triplicate portions of the mixtures were removed and processed for analysis, as described above.

RPMI-8226 cells = test: Metabolic studies: glucose depletion from media and intracellular pH; type: cell-based, human
Description: Cell survival was assayed by exclusion of propidium iodide (PI; 10 μg/ml) by unfixed cells. Annexin V-FITC (Pharmingen) or 3, 3′-dihexyloxacarbocyanine iodide (DiOC6(3); Molecular Probes) staining was analyzed together with PI to discriminate early apoptotic cells. Apoptotic cells were also measured as sub-G1 events among ethanol-fixed cells stained with 10 μg/ml PI. All cell samples were analyzed using a benchtop FACSCalibur™ (Becton Dickinson, San Jose, Calif.). Flow data were analyzed using MultiCycle AV software (Phoenix Flow Systems). For intracellular pH measurements, cell pellets were washed once and resuspended in 2 ml of HEPES-buffered medium (no phenol red and no serum). Carboxy-SNARF-1-AM (Molecular Probes, 1 mM stock in DMSO, stored at −20° C.) was added to a final concentration of 10 μM, and the cells were incubated for 30 min at 37° C. Following incubation with SNARF, cells were sedimented and the pellets were held on ice. Immediately before analysis, pellets were resuspended in […] (HBSS; experimental buffer) or high-[K+] buffer containing nigericin (calibration samples).
The analysis by flow cytometry (Becton Dickinson FACScan™) was done with excitation at 488 nm, and emission at 585 and 640 nm (corresponding to the H^+-bound and—free forms of carboxy-SNARF-1-AM, respectively). […]

[2] = tested on: unfractionated human bone marrow cells; test: Toxicity in normal bone marrow cells (PI and annexin V, flow cytometry); type: cell-based; conditions: 5-20 μg/ml, 24 to 48 h
Description: The RPMI-8226 cell line was supplied by W. Dalton (Univ. Arizona). U266 and H929 cell lines were obtained from the American Type Culture Collection (Rockville, Md.). Cell lines were grown in RPMI 1640 (Gibco, Grand Island, N.Y.) supplemented with 5% fetal bovine serum (Hyclone, Logan, Utah). Normal bone marrow samples were obtained from allogeneic transplant donors at the Fred Hutchison Cancer Research Center, Seattle, Wash., with appropriate patient consent and Internal Review Board approval. Primary cells were maintained in Iscove's medium (Gibco) supplemented with 10% bovine calf serum, 100 ng/ml stem cell factor (Amgen, Thousand Oaks, Calif.), and 50 ng/ml interleukin-3 (Biosource, Camarillo, Calif.).
Cell survival was assayed by exclusion of propidium iodide (PI; 10 μg/ml) by unfixed cells. Annexin V-FITC (Pharmingen) or 3, 3′-dihexyloxacarbocyanine iodide (DiOC6(3); Molecular Probes) staining was analyzed together with PI to discriminate early apoptotic cells. Apoptotic cells were also measured as sub-G1 events among ethanol-fixed cells stained with 10 μg/ml PI. All cell samples were analyzed using a benchtop FACSCalibur™ (Becton Dickinson, San Jose, Calif.). Flow data were analyzed using MultiCycle AV software (Phoenix Flow Systems). For intracellular pH measurements, cell pellets were washed once and resuspended in 2 ml of HEPES-buffered medium (no phenol red and no serum). […]

| Molecule | fraction unbound at 20 min, 1000 ng/ml [1] | half-life at 2000 ng/ml (S9 metabolism; CD2F1, mouse) [min] | half-life at 500 ng/ml (S9 metabolism; CD2F1, mouse) [min] | half-life at 2000 ng/ml (S9 metabolism; Sprague Dawley, rat) [min] | half-life at 500 ng/ml (S9 metabolism; Sprague Dawley, rat) [min] | half-life at 2000 ng/ml (S9 metabolism; dog) [min] | half-life at 500 ng/ml (S9 metabolism; dog) [min] | glycolysis (depletion of glucose from culture media, reduction in intracellular pH) (RPMI-8226 cells) | sensitivity of primary lymphoid and myeloid bone marrow cell subpopulations [2] |
| --- | --- | --- | --- | --- | --- | --- | --- | --- | --- |
| CCCC[C@H]1C(=O)OC(C)[C@H](NC(=O)c2cccc(NC=O)c2OC)C(=O)O[C@@H](C)C1OC(=O)CC(C)C (stereo partly drawn) [2-OMeA3, Antimycin A3 methyl ether] | < 0.01 | > 5 | > 5 | > 5 | > 5 | > 5 | > 5 | – | – |
| 2-methoxy antimycin A [2-OMeA] | – | – | – | – | – | – | – | stimulated glycolysis | insensitive |
